Test results reported in patent publication US20230013304A1, “N2-ARYLMETHYL-4-HALOALKYL-PYRIDAZIN-3-ONE CFTR MODULATORS FOR THE TREATMENT OF CYSTIC FIBROSIS” (UNIVERSITE DE REIMS CHAMPAGNE-ARDENNE, priority 2019, published 2023).

Tested on: CFTR channel
Test: CFTR-dependent halide transport, YFP-H148Q/I152L fluorescent probe (Premo Halide Sensor kit) in osteoblasts
Type: cell-based
Details: for restoration of the CFTR channel activity: on average, compared with reference substances (Ivacaftor, Lumacaftor, Orkambi)
Experimental: To evaluate the action of the compounds according to the invention on the restoration of CFTR activity, said compounds were tested in vitro using a suitable Premo Halid Sensor kit (Invitrogen).
The transport of CFTR-dependant chloride ions is thus first evaluated in osteoblasts with the use of a fluorescent probe (halide-sensitive yellow fluorescent protein (YFP)-H148Q/I152 L protein (Life Technologies, Saint Aubin, France)) (FIG. 1).
48 h after transfection of the probe into the cell, CFTR channel activity is stimulated using a solution composed of forskolin, 3-isobutyl-1-methylxanthine and apigenine (each component in a concentration of 10 μM). An iodine solution (140 mM) was then added and the fluorescence was recorded using a plate reader (400 ms/point; Ft) over a period of 60 s (baseline; F0). The decrease in the Ft/F0 ratio represents the restoration of chloride activity of the CFTR channel.
For quantitative analyses, the gradients of the signals obtained are processed in non-linear regressions and correlated to the level of conductance of chloride ions.

Compound | restoration of CFTR channel activity compared with Ivacaftor and Lumacaftor (osteoblasts, FIG. 1) | restoration of the CFTR channel activity (osteoblasts, FIG. 1) [%] | decrease in fluorescence (Ft/F0) in the presence of the inhibitor (CFTRinh-172 10 μM, untreated osteoblasts, control) | restoration of CFTR channel activity compared with Orkambi (osteoblasts, FIG. 1)
COc1ccc(Cn2nc(-c3ccc(OC(F)F)c(OC)c3)cc(C(F)(F)F)c2=O)cc1 [Compound 4, 6-(4-(difluoromethoxy)-3-methoxyphenyl)-2-(4-methoxybenzyl)-4-(trifluoromethyl)pyridazin-3(2H)-one] | better restoration of CFTR channel activity than those obtained with Ivacaftor and Lumacaftor | 150 | – | –
CFTRinh-172 [reference compound] | – | – | no decrease in fluorescence was observed | –
COc1ccc(-c2cc(C(F)(F)F)c(=O)n(Cc3ccccc3)n2)cc1OC [Compound 1, 2-benzyl-6-(3,4-dimethoxyphenyl)-4-(trifluoromethyl)pyridazin-3(2H)-one] | better restoration of CFTR channel activity than those obtained with Ivacaftor and Lumacaftor | 150 | – | restoration of CFTR channel activity similar to that obtained with Orkambi
